From patent US10533006B2, “Nitrogen-containing heterocycle and carbocycle derivatives having TrkA inhibitory activity” (Shionogi & Co., Ltd., priority 2016, dated 2020)

molecular target: T1, human TrkA (Homo sapiens, UniProt P04629); test: Human TrkA inhibition assay; type: biochemical; details: human TrkA phosphorylation inhibition, ATP 500 μmol/L; read-out: IC50_nM
T1 construct: purchased Lifetechnologies PV3144
In short: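 Human TrkA (1 nmol/L final) preincubated 15 min with compound, then FL-peptide 27 (1.5 μmol/L) and ATP (500 μmol/L) added; 120 min at 37 °C in HEPES/MgCl2/DTT buffer. Mobility-shift measurement of phosphorylated vs non-phosphorylated substrate; IC50 by logistic regression over 3-fold dilution series.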

T1 sequence (P04629 33-796): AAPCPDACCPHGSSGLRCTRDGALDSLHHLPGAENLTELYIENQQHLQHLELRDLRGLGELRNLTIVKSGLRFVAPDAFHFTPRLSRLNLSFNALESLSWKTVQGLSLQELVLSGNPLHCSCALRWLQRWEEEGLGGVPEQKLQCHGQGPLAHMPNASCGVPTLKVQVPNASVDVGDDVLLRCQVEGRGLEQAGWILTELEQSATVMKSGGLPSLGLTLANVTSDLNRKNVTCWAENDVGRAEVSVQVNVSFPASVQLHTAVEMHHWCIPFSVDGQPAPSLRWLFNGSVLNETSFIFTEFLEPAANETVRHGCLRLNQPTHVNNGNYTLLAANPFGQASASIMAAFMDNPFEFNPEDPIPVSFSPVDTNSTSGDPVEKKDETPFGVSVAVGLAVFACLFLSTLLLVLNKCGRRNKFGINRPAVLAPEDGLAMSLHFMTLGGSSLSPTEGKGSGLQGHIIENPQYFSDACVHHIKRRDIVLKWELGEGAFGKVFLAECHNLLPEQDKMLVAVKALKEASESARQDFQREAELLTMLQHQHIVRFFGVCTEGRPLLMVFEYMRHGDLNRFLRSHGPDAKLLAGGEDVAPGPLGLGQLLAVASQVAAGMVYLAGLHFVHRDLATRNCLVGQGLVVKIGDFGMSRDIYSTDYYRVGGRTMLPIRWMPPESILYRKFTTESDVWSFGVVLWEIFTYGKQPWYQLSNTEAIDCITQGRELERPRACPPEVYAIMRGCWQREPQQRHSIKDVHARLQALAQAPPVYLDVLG

| SMILES | IC50 [nM] |
| --- | --- |
| COCCN1C[C@@H](NC(=O)Nc2c(C)c(-c3ccnc(C(=O)NCC(F)(F)F)c3)nn2-c2ccccc2)[C@H](c2ccccc2)C1 (racemic) [Compound I-48] | < 100 |
| COCCN1C[C@@H](NC(=O)Nc2c(C)c(-c3cnn(C)c3)nn2-c2ccccc2)[C@H](c2cc(Cl)nc(Cl)c2)C1 (racemic) [Compound I-4] | 100 to 1000 |
| CNC(=O)c1ccc(-c2nn(-c3ccccc3)c(NC(=O)N[C@@H]3CN(CCOC)C[C@H]3c3ccccc3)c2C)cn1 (racemic) [Compound I-35] | < 100 |
| COCCN1C[C@@H](NC(=O)Nc2c(C)c(-c3cnc(OC)c(C(=O)N[C@@H]4CCOC4)c3)nn2-c2ccccc2)[C@H](c2ccccc2)C1 [Compound I-84] | < 100 |
| COCCN1C[C@@H](NC(=O)Nc2c(C)c(-c3cnc(OC)c(C(=O)NC#N)c3)nn2-c2ccccc2)[C@H](c2ccccc2)C1 (racemic) [Compound I-146] | < 100 |
| COCCN1C[C@@H](NC(=O)Nc2c(C)c(-c3cnc(OC)c(C(=O)NC4CCC(F)(F)CC4)c3)nn2-c2ccccc2)[C@H](c2ccccc2)C1 (racemic) [Compound I-83] | < 100 |
| COCCN1C[C@@H](NC(=O)Nc2c(C)c(-c3cc(C(=O)NO)c(=O)n(C)c3)nn2-c2ccccc2)[C@H](c2ccccc2)C1 (racemic) [Compound I-139] | < 100 |
| COCCN1C[C@@H](NC(=O)Nc2c(C)c(-c3ccnc(C(=O)N(C)C)c3)nn2-c2ccccc2)[C@H](c2ccccc2)C1 (racemic) [Compound I-47] | < 100 |
| COCC[C@@H]1C[C@@H](NC(=O)Nc2c(C)c(-c3ccc4c(cnn4C)c3)nn2-c2ccccc2)[C@H](c2ccc(F)c(F)c2)N1 [Compound I-8] | < 100 |
| CNC(=O)c1cc(-c2nn(-c3ccccc3)c(NC(=O)N[C@@H]3C[C@@H](CCOC)N(C)[C@H]3c3ccnc(F)c3)c2C)cnc1OC [Compound I-176] | < 100 |
| COCC[C@@H]1C[C@@H](NC(=O)Nc2c(C)c(-c3cnc(N4CC(O)C4)nc3)nn2-c2ccccc2)[C@H](c2ccnc(F)c2)C1 [Compound I-166] | < 100 |
| COCCN1C[C@@H](NC(=O)Nc2c(C)c(-c3ccc(C(=O)NCc4ccccc4)nc3)nn2-c2ccccc2)[C@H](c2ccccc2)C1 (racemic) [Compound I-27] | < 100 |
| COCCN1C[C@@H](NC(=O)Nc2c(C)c(-c3ccc(C(=O)N(C)C)nc3)nn2-c2ccccc2)[C@H](c2ccccc2)C1 (racemic) [Compound I-36] | < 100 |
| COCCN1C[C@@H](NC(=O)Nc2c(C)c(-c3cnc(OC)c(C(=O)NC4CCCCC4)c3)nn2-c2ccccc2)[C@H](c2ccccc2)C1 (racemic) [Compound I-77] | < 100 |
| COCCN1C[C@@H](NC(=O)Nc2c(C)c(-c3cnc4c(c3)c(C(=O)OC)nn4C)nn2-c2ccccc2)[C@H](c2ccccc2)C1 (racemic) [Compound I-64] | < 100 |
| COCC[C@@H]1C[C@@H](NC(=O)Nc2c(C)c(C)nn2-c2ccccc2)[C@H](c2ccnc(F)c2)N1C [Compound I-178] | < 100 |
| COCCN1C[C@@H](NC(=O)Nc2c(C)c(-c3cnn(C)c3)nn2-c2ccccc2)[C@H](c2cc(F)nc(Cl)c2)C1 (racemic) [Compound I-39] | < 100 |
| COCCN1C[C@@H](NC(=O)Nc2c(C)c(-c3cnc4c(c3)nnn4C)nn2-c2ccccc2)[C@H](c2ccnc(F)c2)C1 (racemic) [Compound I-105] | < 100 |
| COCCN1C[C@@H](NC(=O)Nc2c(C)c(-c3cc(C(=O)N[C@H]4CCOC4)c(=O)n(C)c3)nn2-c2ccccc2)[C@H](c2ccccc2)C1 (racemic) [Compound I-111] | < 100 |
| COCCN1C[C@@H](NC(=O)Nc2c(C)c(-c3cnc(N=S(C)(C)=O)c(C)c3)nn2-c2ccccc2)[C@H](c2ccccc2)C1 (racemic) [Compound I-121] | < 100 |
| COCC[C@@H]1C[C@@H](NC(=O)Nc2c(C)c(-c3cc(C(=O)O)c(=O)n(C)c3)nn2-c2ccccc2)[C@H](c2ccccc2)C1 [Compound I-149] | < 100 |
| COCCN1C[C@@H](NC(=O)Nc2c(C)c(-c3cnc(OC)c(C(=O)NS(C)(=O)=O)c3)nn2-c2ccccc2)[C@H](c2ccccc2)C1 (racemic) [Compound I-147] | < 100 |
| COCCN1C[C@@H](NC(=O)Nc2c(C)c(-c3ccc(C(=O)NO)nc3)nn2-c2ccccc2)[C@H](c2ccccc2)C1 (racemic) [Compound I-150] | < 100 |
| COCCN1C[C@@H](NC(=O)Nc2c(C)c(-c3cnc4c(c3)c(OC)nn4C)nn2-c2ccccc2)[C@H](c2ccccc2)C1 (racemic) [Compound I-95] | < 100 |
| COCCN1C[C@@H](NC(=O)Nc2c(C)c(-c3cnc4nccnc4c3)nn2-c2ccccc2)[C@H](c2ccccc2)C1 (racemic) [Compound I-135] | < 100 |

| SMILES | IC50 [nM] |
| --- | --- |
| COCCN1C[C@@H](NC(=O)Nc2c(C)c(-c3cnc4c(c3)c(CO)nn4C)nn2-c2ccccc2)[C@H](c2ccccc2)C1 (racemic) [Compound I-65] | < 100 |
| CNC(=O)c1cc(-c2nn(-c3ccccc3)c(NC(=O)N[C@@H]3CN(CCOC)C[C@H]3c3ccccc3)c2C)cnc1OCCO (racemic) [Compound I-123] | < 100 |
| CNC(=O)c1cc(-c2nn(-c3ccccc3)c(NC(=O)N[C@@H]3CN(CCOC)C[C@H]3c3ccccc3)c2C)cnc1OC (racemic) [Compound I-53] | < 100 |
| COCCN1C[C@@H](NC(=O)Nc2c(C)c(-c3cnc4cccnc4c3)nn2-c2ccccc2)[C@H](c2ccccc2)C1 (racemic) [Compound I-137] | < 100 |
| COCCN1C[C@@H](NC(=O)Nc2c(C)c(-c3cnc(OC)c(C(=O)NC[C@@H](C)O)c3)nn2-c2ccccc2)[C@H](c2ccccc2)C1 [Compound I-82] | < 100 |
| COCCN1C[C@@H](NC(=O)Nc2c(C)c(-c3ccc(C(=O)NCC(F)(F)F)nc3)nn2-c2ccccc2)[C@H](c2ccccc2)C1 (racemic) [Compound I-12] | < 100 |
| COCC[C@@H]1C[C@@H](NC(=O)Nc2c(C)c(-c3cc(C#N)c(=O)n(C)c3)nn2-c2ccccc2)[C@H](c2ccccc2)C1 [Compound I-154] | < 100 |
| COCCN1C[C@@H](NC(=O)Nc2c(C)c(-c3cnc(OCCO)nc3)nn2-c2ccccc2)[C@H](c2ccccc2)C1 (racemic) [Compound I-31] | < 100 |
| COCCN1C[C@@H](NC(=O)Nc2c(C)c(-c3ccnc(C(=O)N[C@H]4CC[C@H](O)CC4)c3)nn2-c2ccccc2)[C@H](c2ccccc2)C1 [Compound I-74] | < 100 |
| COCCN1C[C@@H](NC(=O)Nc2c(C)c(-c3cnc4cnn(C)c4c3)nn2-c2ccccc2)[C@H](c2ccccc2)C1 (racemic) [Compound I-28] | < 100 |
| COCC[C@@H]1C[C@@H](NC(=O)Nc2c(C)c(-c3cnc(N4CC(OC)C4)nc3)nn2-c2ccccc2)[C@H](c2ccnc(F)c2)N1C [Compound I-180] | < 100 |
| COCCN1C[C@@H](NC(=O)Nc2c(C)c(-c3ccc4c(cnn4C)c3)nn2-c2ccccc2)[C@H](c2ccccc2)C1 (racemic) [Compound I-3] | < 100 |
| COCCN1C[C@@H](NC(=O)Nc2c(C)c(-c3cc(C(=O)NC4CCCCC4)c(=O)n(C)c3)nn2-c2ccccc2)[C@H](c2ccccc2)C1 (racemic) [Compound I-108] | < 100 |
| COCCN1C[C@@H](NC(=O)Nc2c(C)c(-c3cnn(C)c3)nn2-c2ccccc2)[C@H](c2cnc(F)c(Cl)c2)C1 (racemic) [Compound I-19] | < 100 |
| COCCN1C[C@@H](NC(=O)Nc2c(C)c(-c3cnc(OC)c(C(=O)NO)c3)nn2-c2ccccc2)[C@H](c2ccccc2)C1 (racemic) [Compound I-138] | < 100 |
| COCCN1C[C@@H](NC(=O)Nc2c(C)c(-c3ccc(N=S(C)(C)=O)nc3)nn2-c2ccccc2)[C@H](c2ccccc2)C1 (racemic) [Compound I-91] | < 100 |
| CNC(=O)c1cc(-c2nn(-c3ccccc3)c(NC(=O)N[C@@H]3C[C@@H](CCOC)C[C@H]3c3ccnc(F)c3)c2C)cnc1OC [Compound I-145] | < 100 |
| CCN1CCC(NC(=O)c2cc(-c3nn(-c4ccccc4)c(NC(=O)N[C@@H]4CN(CCOC)C[C@H]4c4ccccc4)c3C)ccn2)CC1 (racemic) [Compound I-43] | < 100 |
| COCC[C@@H]1C[C@@H](NC(=O)Nc2c(C)c(-c3cnc4c(c3)oc(=O)n4C)nn2-c2ccccc2)[C@H](c2ccnc(F)c2)N1C [Compound I-170] | < 100 |
| COCCN1C[C@@H](NC(=O)Nc2c(C)c(-c3ccnc(C(=O)NC[C@@H](C)O)c3)nn2-c2ccccc2)[C@H](c2ccccc2)C1 [Compound I-75] | < 100 |
| COCCN1C[C@@H](NC(=O)Nc2c(C)c(-c3ccnc(C(=O)NC4CCCCC4)c3)nn2-c2ccccc2)[C@H](c2ccccc2)C1 (racemic) [Compound I-71] | < 100 |
| CCOc1ncc(-c2nn(-c3ccccc3)c(NC(=O)N[C@@H]3CN(CCOC)C[C@H]3c3ccccc3)c2C)cc1C(=O)NC1CCOCC1 (racemic) [Compound I-140] | < 100 |
| CCN1CCC(NC(=O)c2ccc(-c3nn(-c4ccccc4)c(NC(=O)N[C@@H]4C[C@@H](CCOC)N(C)[C@H]4c4ccc(F)c(F)c4)c3C)cc2)CC1 [Compound I-25] | < 100 |
| COCCN1C[C@@H](NC(=O)Nc2c(C)c(-c3ccc(C(=O)NC4CCOCC4)nc3)nn2-c2ccccc2)[C@H](c2ccccc2)C1 (racemic) [Compound I-41] | < 100 |
| COCCN1C[C@@H](NC(=O)Nc2c(C)c(-c3ccnc(C(N)=O)c3)nn2-c2ccccc2)[C@H](c2ccccc2)C1 (racemic) [Compound I-44] | < 100 |

same assay, conditions: human TrkA phosphorylation inhibition, ATP 500 μmol/L; read-out: IC50 value

| SMILES | IC50 [nM] |
| --- | --- |
| COCCN1C[C@@H](NC(=O)Nc2c(C)c(-c3ccnc(C(=O)NOC)c3)nn2-c2ccccc2)[C@H](c2ccccc2)C1 (racemic) [Compound I-100] | 6.8 |
| COCCN1C[C@@H](NC(=O)Nc2c(C)c(-c3cnc4c(c3)oc(=O)n4C)nn2-c2ccccc2)[C@H](c2ccccc2)C1 (racemic) [Compound I-76] | 3.1 |
| COCCN1C[C@@H](NC(=O)Nc2c(C)c(-c3ccc(N=S(C)(C)=O)nc3)nn2-c2ccccc2)[C@H](c2ccc(F)c(F)c2)C1 [Compound I-151] | 1.5 |
